Reference: patent US10544130B2, “Metallo-beta-lactamase inhibitors” (priority 2015, dated 2020)

tested on: Pseudomonas aeruginosa PAO1 MB9798 (efflux+, IMP-1); details: ratio MITC95 PA 9798/MITC95 PA 9799; imipenem at 2 μg/mL
From the text: The strain background was Pseudomonas aeruginosa PAO1.
The strain set was then used as a pair to determine the effect of metallo-β-lactamase inhibitors of Formula I on the MIC of imipenem and/or ceftazidime. A fixed concentration of antibiotic was included in standard microbroth MIC tests, usually at the CLSI (Clinical and Laboratory Standards Institute) breakpoint concentration. A fixed amount of a class A/C beta-lactamase inhibitor was also included to inhibit the resident Pseudomonas AmpC enzyme. A serial titration of the metallo-β-lactamase inhibitor was included and the concentration of metallo-β-lactamase inhibitor which restores susceptibility of the strain to the included antibiotic was recorded. That concentration of metallo-β-lactamase inhibitor was then compared between the two strains to determine the fold difference between the efflux + (MB9798) and efflux − (MB9799) strains. This was taken as an indication of the extent to which the MBLi is subject to efflux.

Q: How did the Efflux ratio turn out when `Nc1nc2c(-c3ccc(S(=O)(=O)NCC4(F)CNC4)c(S(N)(=O)=O)c3-c3nnn[nH]3)cccc2s1` [Example 46, 4-(2-amino-1,3-benzothiazol-4-yl)-N^1-[(3-fluoroazetidin-3-yl)methyl]-3-(1H-tetrazol-5-yl)benzene-1,2-disulfonamide] was run?
A: Its Efflux ratio is 0.50.

Q: `NC(=O)c1ccc(-c2ccc(S(=O)(=O)N[C@@H]3CCNC3)c(S(N)(=O)=O)c2-c2nnn[nH]2)cc1` [Example 137, (R)-4′-(N-(pyrrolidin-3-yl)sulfamoyl)-3′-sulfamoyl-2′-(1H-tetrazol-5-yl)-[1,1′-biphenyl]-4-carboxamide] was tested. Which Efflux ratio did it give?
A: Its Efflux ratio is 1.00.

Q: How did the Efflux ratio turn out when `Nc1nc2c(-c3ccc(S(=O)(=O)N[C@@H]4CCCNC4)c(S(N)(=O)=O)c3-c3nnn[nH]3)cccc2s1` [Example 69, 4-(2-amino-1,3-benzothiazol-4-yl)-N1-[(3R)-piperidin-3-yl]-3-(1H-tetrazol-5-yl)benzene-1,2-disulfonamide] was run?
A: Its Efflux ratio is 0.50.

Q: How did the Efflux ratio turn out when `NC[C@H](CO)NS(=O)(=O)c1ccc(-c2cccnc2N)c(-c2nn[nH]n2)c1S(N)(=O)=O` [Example 215, (R)-N1-(1-amino-3-hydroxypropan-2-yl)-4-(2-aminopyridin-3-yl)-3-(2H-tetrazol-5-yl)benzene-1,2-disulfonamide] was run?
A: Its Efflux ratio is 1.00.

Q: Which Efflux ratio does the source give for `Nc1nc2c(-c3ccc(S(=O)(=O)N[C@H]4CO[C@H]5[C@H]4OC[C@H]5O)c(S(N)(=O)=O)c3-c3nnn[nH]3)cccc2s1` [Example 50, 2-({[4-(2-amino-1,3-benzothiazol-4-yl)-2-sulfamoyl-3-(1H-tetrazol-5-yl)phenyl]sulfonyl}amino)-1,4:3,6-dianhydro-2-deoxy-D-allitol] here?
A: The Efflux ratio was 2.00.

Q: For `Nc1ccc(-c2ccc(S(=O)(=O)NC[C@@H]3CNCCN3)c(S(N)(=O)=O)c2-c2nn[nH]n2)cn1` [Example 312, (S)-4-(6-aminopyridin-3-yl)-N1-(piperazin-2-ylmethyl)-3-(2H-tetrazol-5-yl)benzene-1,2-disulfonamide], which Efflux ratio is on record?
A: The Efflux ratio was 1.00.

Q: `NS(=O)(=O)c1c(S(=O)(=O)N2CCNCC2)ccc(-c2cccc3cn[nH]c23)c1-c1nnn[nH]1` [Example 160, 3-(1H-indazol-7-yl)-6-(piperazin-1-ylsulfonyl)-2-(1H-tetrazol-5-yl)benzenesulfonamide] was tested. Which Efflux ratio did it give?
A: The Efflux ratio was 4.00.

Q: For `CC1(CN)CN(S(=O)(=O)c2ccc(-c3cccc4sc(N)nc34)c(-c3nnn[nH]3)c2S(N)(=O)=O)C1.O=C(O)C(F)(F)F` [Example 101, (1-((4-(2-aminobenzo[d]thiazol-4-yl)-2-sulfamoyl-3-(1H-tetrazol-5-yl)phenyl)sulfonyl)-3-methylazetidin-3-yl)methanaminium 2,2,2-trifluoroacetate], which Efflux ratio is on record?
A: Its Efflux ratio is 1.00.

Q: `Nc1nc2c(-c3ccc(S(=O)(=O)NCC4CCNC4)c(S(N)(=O)=O)c3-c3nnn[nH]3)cccc2s1.O=CO` (stereo not shown) [Example 120, 3-((4-(2-aminobenzo[d]thiazol-4-yl)-2-sulfamoyl-3-(1H-tetrazol-5-yl)phenylsulfonamido)methyl)pyrrolidin-1-ium formate] was tested. Which Efflux ratio did it give?
A: Its Efflux ratio is 0.50.

Q: Which Efflux ratio does the source give for `Nc1nc2c(-c3ccc(S(=O)(=O)NC4C[C@@H]5CN[C@H]4C5)c(S(N)(=O)=O)c3-c3nnn[nH]3)cccc2s1.O=CO` (stereo partly drawn) [Example 119, 4-(2-aminobenzo[d]thiazol-4-yl)-N1-((1S,4R)-2-azabicyclo[2.2.1]heptan-6-yl)-3-(1H-tetrazol-5-yl)benzene-1,2-disulfonamide, formate salt] here?
A: The Efflux ratio was 0.50.

Q: `N[C@@H](CO)CNS(=O)(=O)c1ccc(-c2cccc(C3N=CN=N3)c2)c(-c2nn[nH]n2)c1S(N)(=O)=O` (stereo partly drawn) [Example 226, N4-((R)-2-amino-3-hydroxypropyl)-2-(2H-tetrazol-5-yl)-3′-(3H-1,2,4-triazol-3-yl)-[1,1′-biphenyl]-3,4-disulfonamide] was tested. Which Efflux ratio did it give?
A: The Efflux ratio was 2.00.

Q: With `Nc1nc2c(-c3ccc(S(=O)(=O)N[C@H]4CCNC4)c(S(N)(=O)=O)c3-c3nn[nH]n3)cccc2[nH]1` [Example 162, 4-(2-amino-1H-benzo[d]imidazol-4-yl)-N^1-((S)-pyrrolidin-3-yl)-3-(2H-tetrazol-5-yl)benzene-1,2-disulfonamide] as the compound, how does the Efflux ratio read?
A: The Efflux ratio was 0.87.

Q: Which Efflux ratio does the source give for `Nc1ccc(-c2ccc(S(=O)(=O)NC[C@]3(N)CCNC3)c(S(N)(=O)=O)c2-c2nn[nH]n2)cn1` [Example 368, (S)-4-(6-aminopyridin-3-yl)-N1-((3-aminopyrrolidin-3-yl)methyl)-3-(2H-tetrazol-5-yl)benzene-1,2-disulfonamide] here?
A: Its Efflux ratio is 1.00.

Q: With `Nc1nc2c(-c3ccc(S(=O)(=O)NCCC4CNC4)c(S(N)(=O)=O)c3-c3nnn[nH]3)cccc2s1` [Example 30, 4-(2-amino-1,3-benzothiazol-4-yl)-N1-(2-azetidin-3-ylethyl)-3-(1H-tetrazol-5-yl)benzene-1,2-disulfonamide] as the compound, how does the Efflux ratio read?
A: Its Efflux ratio is 1.00.

Q: How did the Efflux ratio turn out when `Cn1c(N)nc2c(-c3ccc(S(=O)(=O)N[C@@H]4CCNC4)c(S(N)(=O)=O)c3-c3nn[nH]n3)cccc21` [Example 164, 4-(2-amino-1-methyl-1H-benzo[d]imidazol-4-yl)-N^1-((R)-pyrrolidin-3-yl)-3-(2H-tetrazol-5-yl)benzene-1,2-disulfonamide] was run?
A: The Efflux ratio was 1.00.

Q: For `Nc1nc2c(-c3ccc(S(=O)(=O)NCC4(N)CC4)c(S(N)(=O)=O)c3-c3nn[nH]n3)cccc2s1` [Example 149, 4-(2-aminobenzo[d]thiazol-4-yl)-N1-((1-aminocyclopropyl)methyl)-3-(2H-tetrazol-5-yl)benzene-1,2-disulfonamide], which Efflux ratio is on record?
A: Its Efflux ratio is 1.00.

Q: Which Efflux ratio does the source give for `NS(=O)(=O)c1c(S(=O)(=O)N[C@@H]2CCNC2)ccc(-c2cccc3c2OC(F)(F)O3)c1-c1nnn[nH]1` [Example 131, (R)-4-(2,2-difluorobenzo[d][1,3]dioxol-4-yl)-N1-(pyrrolidin-3-yl)-3-(1H-tetrazol-5-yl)benzene-1,2-disulfonamide] here?
A: The Efflux ratio was 16.00.

Q: Which Efflux ratio does the source give for `NS(=O)(=O)c1ccc(-c2ccc(S(=O)(=O)N[C@@H]3CCNC3)c(S(N)(=O)=O)c2-c2nnn[nH]2)cc1` [Example 135, (R)-N4-(pyrrolidin-3-yl)-2-(1H-tetrazol-5-yl)-[1,1′-biphenyl]-3,4,4′-trisulfonamide] here?
A: The Efflux ratio was 1.00.

Q: With `Nc1nc(-c2cccc(-c3ccc(S(=O)(=O)N[C@@H]4CCNC4)c(S(N)(=O)=O)c3-c3nn[nH]n3)c2)n[nH]1` [Example 231, (R)-3′-(5-amino-1H-1,2,4-triazol-3-yl)-N4-(pyrrolidin-3-yl)-2-(2H-tetrazol-5-yl)-[1,1′-biphenyl]-3,4-disulfonamide] as the compound, how does the Efflux ratio read?
A: The Efflux ratio was 1.00.

Q: Which Efflux ratio does the source give for `Nc1nc2c(-c3ccc(S(=O)(=O)N[C@@H](N)c4ccccn4)c(S(N)(=O)=O)c3-c3nnn[nH]3)cccc2s1.O=C(O)C(F)(F)F` [Example 99, (R)-(4-(2-aminobenzo[d]thiazol-4-yl)-2-sulfamoyl-3-(1H-tetrazol-5-yl)phenylsulfonamido) (pyridin-2-yl)methanaminium 2,2,2-trifluoroacetate] here?
A: The Efflux ratio was 8.00.

Q: With `Nc1nc2c(-c3ccc(S(=O)(=O)NC4CC5CNC4C5)c(S(N)(=O)=O)c3-c3nnn[nH]3)cccc2s1` (stereo not shown) [Example 88, 4-(2-aminobenzo[d]thiazol-4-yl)-N^1-(2-azabicyclo[2.2.1]heptan-6-yl)-3-(1H-tetrazol-5-yl)benzene-1,2-disulfonamide] as the compound, how does the Efflux ratio read?
A: The Efflux ratio was 0.50.

Q: How did the Efflux ratio turn out when `CN1CCOC(CNS(=O)(=O)c2ccc(-c3cccc4sc(N)nc34)c(-c3nnn[nH]3)c2S(N)(=O)=O)C1` (stereo not shown) [Example 17, 4-(2-amino-1,3-benzothiazol-4-yl)-N1-[(4-methylmorpholin-2-yl)methyl]-3-(1H-tetrazol-5-yl)benzene-1,2-disulfonamide] was run?
A: The Efflux ratio was 2.00.
